# Assay results reported in ChEMBL document CHEMBL4385605, “Synthesis and Structure-Affinity Relationships of Spirocyclic Benzopyrans with Exocyclic Amino Moiety” (J Med Chem, 2019).
# pKi: −log10 of the molar value. The source made the active and inactive calls. The rule behind the calls is not given here.
# Columns and labels:
# [1] = biological target: Sigma non-opioid intracellular receptor 1 (Cavia porcellus, UniProt Q60492); experiment: Displacement of [3H](+)-pentazocine from sigma 1 receptor in guinea pig brain cortex membranes after 120 mins by scintillation counting analysis; type: cell membranes
# [2] = biological target: T1, Sigma intracellular receptor 2 (Rattus norvegicus, UniProt Q5U3Y7); experiment: Displacement of [3H]-di-o-tolylguanidine from sigma2 receptor in rat liver membranes incubated for 120 mins in the presence of sigma1 receptor ligand (+)-pentazocine by scintillation counting method; type: cell membranes
# T1 sequence (Q5U3Y7 whole entry): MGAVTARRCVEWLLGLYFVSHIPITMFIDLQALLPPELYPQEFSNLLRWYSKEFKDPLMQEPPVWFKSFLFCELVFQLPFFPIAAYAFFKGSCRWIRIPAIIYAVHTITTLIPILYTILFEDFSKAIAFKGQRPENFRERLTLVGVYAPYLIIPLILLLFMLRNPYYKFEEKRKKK
# [3] = Selectivity ratio of Ki for displacement of [3H]DTG from sigma2 receptor in rat liver membranes to Ki for displacement of (+)-[3H]pentazocine from sigma 1 receptor in guinea pig brain cortex membranes; type: cell membranes
# [4] = biological target: Sigma non-opioid intracellular receptor 1 (Homo sapiens, UniProt Q99720); experiment: Displacement of [3H](+)-pentazocine from sigma 1 receptor in human RPMI8226 cell membranes incubated for 2 hrs under shaking by scintillation counting analysis
# [5] = biological target: Sigma intracellular receptor 2 (Homo sapiens, UniProt Q5BJF2); experiment: Displacement of [3H]-di-o-tolylguanidine from sigma2 receptor in human RT4 cell membranes incubated for 120 mins in the presence of sigma1 receptor ligand (+)-pentazocine by scintillation counting method
# [6] = biological target: Kappa-type opioid receptor (Cavia porcellus) (UniProt P41144); experiment: Displacement of [3H]U69,593 from kappa opioid receptor in guinea pig brain membrane at 1 uM after 120 mins by scintillation counting analysis relative to control; type: cell membranes
# Cytochrome P450 3A4 = Cytochrome P450 3A4 (Homo sapiens, UniProt P08684); experiment: Inhibition of recombinant human CYP3A4 at 1 uM by fluorescence assay; type: ADME; settings: recombinant enzyme
# CYP2D6 = CYP2D6 (Homo sapiens, UniProt P10635); experiment: Inhibition of recombinant human CYP2D6 at 1 uM by fluorescence assay relative to control; type: ADME
# HepG2 [7] = experiment: Cytotoxicity against human HepG2 cells at 1 to 100 uM incubated for 20 hrs under serum free condition by MTT assay; type: cell-based; settings: hepg2, 20 h
# HepG2 [8] = experiment: Cytotoxicity against human HepG2 cells at 1 to 100 uM incubated for 20 hrs under serum free condition by neutral red uptake assay; type: cell-based; settings: hepg2, 20 h
# Cytochrome P450 2C9 = Cytochrome P450 2C9 (Homo sapiens, UniProt P11712); experiment: Inhibition of recombinant human CYP2C9 at 1 uM by fluorescence assay; type: ADME; settings: recombinant enzyme
# Cytochrome P450 2C19 = Cytochrome P450 2C19 (Homo sapiens, UniProt P33261); experiment: Inhibition of recombinant human CYP2C19 at 1 uM by fluorescence assay; type: ADME; settings: recombinant enzyme
# [9] = biological target: Sigma non-opioid intracellular receptor 1 (Rattus norvegicus) (UniProt Q9R0C9); experiment: Antagonist activity at sigma 1 receptor in rat PC12 cells assessed as suppression of opipramol-induced inhibition of KCl-stimulated intracellular calcium influx at 10 nM preincubated for 5 mins followed by opipramol addition for 5 mins and subsequent KCl-stimulation by fura-2-AM dye based fluorescence assay; type: cell-based
# [10] = biological target: Sodium-dependent noradrenaline transporter (Homo sapiens) (UniProt P23975); experiment: Binding affinity to noradrenaline transporter (unknown origin) at 1 uM
# [11] = biological target: T2, Alpha-1A adrenergic receptor (Homo sapiens) (UniProt P35348); experiment: Binding affinity to alpha 1a adrenergic receptor (unknown origin) at 1 uM relative to control
# T2 sequence (whole entry): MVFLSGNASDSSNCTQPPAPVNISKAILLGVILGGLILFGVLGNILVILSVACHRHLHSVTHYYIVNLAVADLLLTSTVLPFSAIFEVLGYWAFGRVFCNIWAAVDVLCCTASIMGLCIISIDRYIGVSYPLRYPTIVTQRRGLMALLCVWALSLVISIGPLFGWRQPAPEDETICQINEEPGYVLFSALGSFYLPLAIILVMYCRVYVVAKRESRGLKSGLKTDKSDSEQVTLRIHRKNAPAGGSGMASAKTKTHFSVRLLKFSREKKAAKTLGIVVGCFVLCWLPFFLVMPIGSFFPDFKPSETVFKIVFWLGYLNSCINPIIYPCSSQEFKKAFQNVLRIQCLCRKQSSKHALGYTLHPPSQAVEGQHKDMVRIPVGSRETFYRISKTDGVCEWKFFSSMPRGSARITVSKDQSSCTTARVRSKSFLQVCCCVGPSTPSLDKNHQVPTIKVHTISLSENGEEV
# [12] = biological target: T3, Alpha-2A adrenergic receptor (Homo sapiens) (UniProt P08913); experiment: Binding affinity to alpha 2a adrenergic receptor (unknown origin) at 1 uM relative to control
# T3 sequence (whole entry): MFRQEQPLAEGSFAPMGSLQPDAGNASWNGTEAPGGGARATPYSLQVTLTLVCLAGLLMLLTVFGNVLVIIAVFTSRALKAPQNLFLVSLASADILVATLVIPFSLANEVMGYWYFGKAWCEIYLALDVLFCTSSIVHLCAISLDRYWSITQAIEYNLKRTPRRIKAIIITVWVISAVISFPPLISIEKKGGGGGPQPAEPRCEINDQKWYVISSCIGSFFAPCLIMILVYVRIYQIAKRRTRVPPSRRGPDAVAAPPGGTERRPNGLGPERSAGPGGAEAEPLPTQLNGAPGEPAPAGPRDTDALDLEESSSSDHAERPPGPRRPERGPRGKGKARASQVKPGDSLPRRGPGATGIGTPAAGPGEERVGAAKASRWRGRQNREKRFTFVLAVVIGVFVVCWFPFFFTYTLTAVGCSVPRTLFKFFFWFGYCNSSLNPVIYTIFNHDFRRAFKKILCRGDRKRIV
# [13] = biological target: T4, 5-hydroxytryptamine receptor 1A (Homo sapiens) (UniProt P08908); experiment: Binding affinity to 5-HT1AR (unknown origin) at 1 uM relative to control
# T4 sequence (whole entry): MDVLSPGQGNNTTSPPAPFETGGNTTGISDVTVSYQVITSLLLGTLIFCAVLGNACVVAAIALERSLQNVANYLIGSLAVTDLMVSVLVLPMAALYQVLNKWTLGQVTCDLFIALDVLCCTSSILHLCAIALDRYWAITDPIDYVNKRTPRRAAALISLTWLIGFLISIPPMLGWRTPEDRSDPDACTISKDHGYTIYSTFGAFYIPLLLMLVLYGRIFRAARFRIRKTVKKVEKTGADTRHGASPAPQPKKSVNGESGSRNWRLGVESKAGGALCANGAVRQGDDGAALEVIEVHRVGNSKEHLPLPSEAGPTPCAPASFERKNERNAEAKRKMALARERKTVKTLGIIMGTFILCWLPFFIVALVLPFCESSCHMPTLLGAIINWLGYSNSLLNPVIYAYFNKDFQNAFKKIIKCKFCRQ
# [14] = biological target: 5-hydroxytryptamine receptor 2B (Homo sapiens) (UniProt P41595); experiment: Binding affinity to 5-HT2BR (unknown origin) at 1 uM relative to control
# [15] = biological target: Sodium-dependent serotonin transporter (Homo sapiens) (UniProt P31645); experiment: Binding affinity to serotonin transporter (unknown origin) at 1 uM
# Sequence of Sodium-dependent serotonin transporter (Homo sapiens) (P31645 whole entry, looked up): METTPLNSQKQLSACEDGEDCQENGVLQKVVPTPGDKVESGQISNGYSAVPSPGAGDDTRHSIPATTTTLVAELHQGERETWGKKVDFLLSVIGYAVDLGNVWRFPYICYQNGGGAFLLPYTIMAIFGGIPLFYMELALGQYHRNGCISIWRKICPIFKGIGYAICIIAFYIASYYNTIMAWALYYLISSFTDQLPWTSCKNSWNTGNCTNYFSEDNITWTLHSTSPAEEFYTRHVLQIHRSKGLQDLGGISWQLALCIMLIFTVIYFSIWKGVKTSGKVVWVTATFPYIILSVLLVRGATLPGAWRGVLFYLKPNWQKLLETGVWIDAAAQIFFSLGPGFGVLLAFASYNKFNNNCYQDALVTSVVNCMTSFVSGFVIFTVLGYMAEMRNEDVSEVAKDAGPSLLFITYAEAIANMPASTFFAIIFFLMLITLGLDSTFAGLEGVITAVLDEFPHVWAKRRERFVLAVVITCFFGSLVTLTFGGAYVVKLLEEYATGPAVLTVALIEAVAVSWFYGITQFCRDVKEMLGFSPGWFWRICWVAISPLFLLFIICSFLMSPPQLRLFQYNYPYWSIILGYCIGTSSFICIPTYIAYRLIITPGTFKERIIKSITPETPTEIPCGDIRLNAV
# Sequence of Sigma non-opioid intracellular receptor 1 (Rattus norvegicus) (Q9R0C9 whole entry): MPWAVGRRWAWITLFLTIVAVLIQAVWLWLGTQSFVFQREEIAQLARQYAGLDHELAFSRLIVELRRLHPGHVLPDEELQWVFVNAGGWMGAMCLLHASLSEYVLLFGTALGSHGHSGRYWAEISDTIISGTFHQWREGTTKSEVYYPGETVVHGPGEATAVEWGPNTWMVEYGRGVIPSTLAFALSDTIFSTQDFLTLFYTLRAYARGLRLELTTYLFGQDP
# Sequence of Cytochrome P450 3A4 (P08684 whole entry): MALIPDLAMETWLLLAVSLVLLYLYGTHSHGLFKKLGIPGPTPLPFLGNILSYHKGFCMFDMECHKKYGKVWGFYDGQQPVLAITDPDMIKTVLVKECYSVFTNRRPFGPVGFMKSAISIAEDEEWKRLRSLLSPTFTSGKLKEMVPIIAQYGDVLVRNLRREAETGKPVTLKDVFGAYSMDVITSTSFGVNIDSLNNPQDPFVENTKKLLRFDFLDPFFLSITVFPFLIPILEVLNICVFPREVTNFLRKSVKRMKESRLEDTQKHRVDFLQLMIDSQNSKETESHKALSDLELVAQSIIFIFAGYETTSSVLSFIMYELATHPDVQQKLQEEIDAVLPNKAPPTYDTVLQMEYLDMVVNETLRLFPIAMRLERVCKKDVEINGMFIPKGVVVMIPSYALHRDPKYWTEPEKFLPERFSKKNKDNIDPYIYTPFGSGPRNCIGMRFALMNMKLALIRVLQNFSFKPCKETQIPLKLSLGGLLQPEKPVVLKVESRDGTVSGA
# Sequence of Cytochrome P450 2C9 (P11712 whole entry): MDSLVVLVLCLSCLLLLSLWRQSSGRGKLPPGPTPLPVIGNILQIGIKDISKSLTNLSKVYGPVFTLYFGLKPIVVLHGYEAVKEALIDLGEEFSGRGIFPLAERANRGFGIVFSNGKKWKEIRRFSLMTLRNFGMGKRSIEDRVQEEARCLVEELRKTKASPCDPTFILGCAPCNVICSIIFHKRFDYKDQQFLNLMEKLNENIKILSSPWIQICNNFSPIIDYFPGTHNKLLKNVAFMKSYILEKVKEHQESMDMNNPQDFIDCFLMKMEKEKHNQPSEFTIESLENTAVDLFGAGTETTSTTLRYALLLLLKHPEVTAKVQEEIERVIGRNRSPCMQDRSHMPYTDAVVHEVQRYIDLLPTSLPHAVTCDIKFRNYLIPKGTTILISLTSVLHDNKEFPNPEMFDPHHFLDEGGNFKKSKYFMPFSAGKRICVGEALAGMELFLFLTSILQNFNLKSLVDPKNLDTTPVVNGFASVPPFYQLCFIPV
# Sequence of Sigma non-opioid intracellular receptor 1 (Homo sapiens, UniProt Q99720) (Q99720 whole entry): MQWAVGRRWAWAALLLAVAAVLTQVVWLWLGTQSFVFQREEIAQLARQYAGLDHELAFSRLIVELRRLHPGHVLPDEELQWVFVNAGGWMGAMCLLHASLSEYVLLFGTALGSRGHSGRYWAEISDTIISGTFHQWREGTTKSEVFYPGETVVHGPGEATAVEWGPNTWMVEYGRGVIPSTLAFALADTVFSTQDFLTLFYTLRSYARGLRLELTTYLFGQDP
# Sequence of CYP2D6 (P10635 whole entry): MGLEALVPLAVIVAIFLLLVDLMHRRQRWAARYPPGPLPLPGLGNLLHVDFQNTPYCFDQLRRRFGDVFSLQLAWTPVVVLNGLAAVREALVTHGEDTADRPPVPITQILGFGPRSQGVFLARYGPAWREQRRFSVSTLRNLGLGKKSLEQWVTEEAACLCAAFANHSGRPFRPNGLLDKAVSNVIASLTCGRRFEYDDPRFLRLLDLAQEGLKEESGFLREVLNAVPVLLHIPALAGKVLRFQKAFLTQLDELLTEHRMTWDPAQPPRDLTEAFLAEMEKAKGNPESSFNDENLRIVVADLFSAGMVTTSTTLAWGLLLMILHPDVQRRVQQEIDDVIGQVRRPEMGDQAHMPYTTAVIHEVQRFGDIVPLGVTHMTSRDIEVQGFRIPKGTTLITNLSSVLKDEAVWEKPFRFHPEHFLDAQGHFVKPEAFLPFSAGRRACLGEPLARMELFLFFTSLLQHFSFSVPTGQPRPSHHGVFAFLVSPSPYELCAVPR
# Sequence of 5-hydroxytryptamine receptor 2B (Homo sapiens) (P41595 whole entry): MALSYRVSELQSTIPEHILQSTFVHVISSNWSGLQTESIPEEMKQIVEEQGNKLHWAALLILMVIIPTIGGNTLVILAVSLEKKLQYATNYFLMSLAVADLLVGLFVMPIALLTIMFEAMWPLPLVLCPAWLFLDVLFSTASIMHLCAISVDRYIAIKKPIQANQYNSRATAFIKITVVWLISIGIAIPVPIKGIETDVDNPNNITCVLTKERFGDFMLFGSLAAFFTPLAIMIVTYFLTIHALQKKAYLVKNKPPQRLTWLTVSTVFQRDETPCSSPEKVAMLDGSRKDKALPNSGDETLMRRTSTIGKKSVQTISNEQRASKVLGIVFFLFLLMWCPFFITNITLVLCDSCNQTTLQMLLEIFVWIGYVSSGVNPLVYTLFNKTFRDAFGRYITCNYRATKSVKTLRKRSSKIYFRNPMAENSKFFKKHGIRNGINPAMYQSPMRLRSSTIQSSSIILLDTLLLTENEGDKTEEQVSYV
# Sequence of Sigma non-opioid intracellular receptor 1 (Cavia porcellus, UniProt Q60492) (Q60492 whole entry): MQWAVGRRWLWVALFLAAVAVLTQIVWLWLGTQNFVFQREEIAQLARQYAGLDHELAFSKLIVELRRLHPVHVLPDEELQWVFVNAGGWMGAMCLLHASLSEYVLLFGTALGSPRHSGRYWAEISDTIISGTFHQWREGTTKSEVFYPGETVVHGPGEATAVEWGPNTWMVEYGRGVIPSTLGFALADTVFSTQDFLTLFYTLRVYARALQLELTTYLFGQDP
# Sequence of Cytochrome P450 2C19 (P33261 whole entry): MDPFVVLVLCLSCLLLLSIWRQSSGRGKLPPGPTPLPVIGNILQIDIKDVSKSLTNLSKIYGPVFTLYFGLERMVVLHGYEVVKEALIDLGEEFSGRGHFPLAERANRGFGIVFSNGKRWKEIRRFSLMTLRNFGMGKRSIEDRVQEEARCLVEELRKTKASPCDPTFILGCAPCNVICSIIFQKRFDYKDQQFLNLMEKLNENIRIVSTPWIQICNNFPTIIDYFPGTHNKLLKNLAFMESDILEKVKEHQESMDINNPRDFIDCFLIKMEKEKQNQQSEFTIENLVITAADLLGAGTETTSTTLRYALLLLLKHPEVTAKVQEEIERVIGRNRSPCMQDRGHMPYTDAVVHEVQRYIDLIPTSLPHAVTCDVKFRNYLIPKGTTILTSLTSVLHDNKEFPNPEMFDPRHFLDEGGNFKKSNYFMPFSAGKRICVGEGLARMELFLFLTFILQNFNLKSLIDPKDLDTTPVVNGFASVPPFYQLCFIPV
# Sequence of Sodium-dependent noradrenaline transporter (Homo sapiens) (P23975 whole entry): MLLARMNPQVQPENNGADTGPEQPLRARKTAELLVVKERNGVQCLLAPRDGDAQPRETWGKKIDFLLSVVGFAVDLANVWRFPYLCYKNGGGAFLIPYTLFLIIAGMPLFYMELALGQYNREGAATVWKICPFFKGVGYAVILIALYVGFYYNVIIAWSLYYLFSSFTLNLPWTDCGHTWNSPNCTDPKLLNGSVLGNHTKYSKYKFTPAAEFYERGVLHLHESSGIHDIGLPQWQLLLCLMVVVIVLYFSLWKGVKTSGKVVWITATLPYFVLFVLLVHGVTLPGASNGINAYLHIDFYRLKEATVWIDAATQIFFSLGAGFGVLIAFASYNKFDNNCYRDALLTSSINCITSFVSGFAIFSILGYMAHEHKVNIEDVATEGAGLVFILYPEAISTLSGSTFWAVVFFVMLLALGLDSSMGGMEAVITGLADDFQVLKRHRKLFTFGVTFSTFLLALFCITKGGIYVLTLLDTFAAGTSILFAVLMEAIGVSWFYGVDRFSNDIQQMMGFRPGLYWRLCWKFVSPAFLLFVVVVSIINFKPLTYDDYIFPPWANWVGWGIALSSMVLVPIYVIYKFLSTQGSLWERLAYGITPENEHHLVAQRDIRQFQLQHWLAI
# Sequence of Sigma intracellular receptor 2 (Homo sapiens, UniProt Q5BJF2) (Q5BJF2 whole entry): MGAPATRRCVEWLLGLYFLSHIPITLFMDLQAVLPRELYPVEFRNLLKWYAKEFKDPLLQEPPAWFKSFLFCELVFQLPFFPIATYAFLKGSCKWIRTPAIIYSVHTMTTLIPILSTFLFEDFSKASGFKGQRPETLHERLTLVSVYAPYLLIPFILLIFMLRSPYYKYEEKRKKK
# Sequence of Kappa-type opioid receptor (Cavia porcellus) (P41144 whole entry): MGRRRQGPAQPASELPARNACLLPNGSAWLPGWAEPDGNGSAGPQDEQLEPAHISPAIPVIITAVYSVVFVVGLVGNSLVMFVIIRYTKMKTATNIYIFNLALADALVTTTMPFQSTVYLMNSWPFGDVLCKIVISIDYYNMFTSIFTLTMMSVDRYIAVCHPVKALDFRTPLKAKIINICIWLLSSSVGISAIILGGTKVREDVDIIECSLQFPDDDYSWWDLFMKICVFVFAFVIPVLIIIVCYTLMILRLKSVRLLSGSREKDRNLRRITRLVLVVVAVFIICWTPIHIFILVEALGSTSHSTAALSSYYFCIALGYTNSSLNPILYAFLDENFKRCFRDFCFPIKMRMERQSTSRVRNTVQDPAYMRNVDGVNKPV
smiles,measurement,setting,value
COC1Cc2ccccc2[C@]2(CC[C@H](N(C)CC3CCCCC3)CC2)O1 (some centres undefined),pKi,[1],8.72
same,pKi,[2],7.92
same,Ratio Ki,[3],5 to 10
same,pKi,[4],8.14
same,pKi,[5],7.89
same,inhibition,[6],0%
same,inhibition (INH),Cytochrome P450 3A4,Not Active
same,inhibition at 1 µM,CYP2D6,> 90%
same,Activity,HepG2 [7],Non-Toxic
same,Activity,HepG2 [8],Non-Toxic
same,inhibition (INH),Cytochrome P450 2C9,Not Active
same,inhibition (INH),Cytochrome P450 2C19,Not Active
same,inhibition,[9],Active
same,Activity,[10],inactive
same,Activity,[11],68%
same,Activity,[12],93%
same,Activity,[13],60%
same,Activity,[14],62%
same,Activity,[15],inactive
